Columns and labels:
coxsackievirus B [1] = conditions: in vitro; mechanism not defined; cited from earlier work
echoviruses = conditions: in vitro; mechanism not defined; cited from earlier work
Coxsackievirus B [2] = conditions: intravenous matrine; 0% in the placebo-treated group; cited from earlier work
enterovirus = experiment: case report Example 5, treatment of chronic fatigue; type: in vivo, human; conditions: before oxymatrine
Procedure: A person developed debilitating fatigue, sore throat, oral ulcers, vertigo, headaches and cognitive dysfunction two months after having a flu-like illness. […] Approximately four years later, the patient started taking oxymatrine. After an initial increase of gastrointestinal symptoms for the first two weeks, the patient tolerated 500 mg per day of oxymatrine.
The symptoms continued for two weeks and resolved after stopping oxymatrine. […] They continued to improve for 12 months after taking the medication.

| SMILES | growth inhibition of coxsackievirus B in cell cultures (coxsackievirus B [1]) | growth inhibition of echoviruses in cell cultures (echoviruses) | patients with improvement of cardiac function, increase in lymphocyte number and function, and loss of viral markers (Coxsackievirus B [2]) | clinical response (enterovirus) |
| --- | --- | --- | --- | --- |
| O=C1CCC[C@@H]2[C@H]3CCCN4CCC[C@@H](CN12)[C@@H]34 [matrine] | growth inhibition | growth inhibition | more than 90% |  |
| CC(C)[C@H](N)C(=O)OCCOCn1cnc2c(=O)[nH]c(N)nc21 [valacyclovir, reference compound] |  |  |  | did not respond |
